Measurements: US5242912A, “Cyclic anthranilic acid derivatives and process of preparing the same” (Kyorin Pharmaceutical Co., Ltd., priority 1989, dated 1993)

How the values were obtained:
[1] = tested on: vascular permeability; assay: Inhibition of increased vascular permeability (acetic acid i.p., Evans blue dye leakage); type: in vivo, Male ddy mice; conditions: 100 mg/kg p.o., N = 9
Protocol: Inhibition of increased vascular permeability
Male ddy mice (6 weeks of age) were used in this experiment. Example 9 compound suspended in 5% gum arabic solution was administered p.o., 45 minutes before the i.v. injection of 1.0% Evans blue solution (0.1 ml/10 g B.W.). Immediately after the i.v. injection, 1.0% acetic acid solution was administered i.p. (0.1 ml/10 g B.W.). The mice were killed 30 minutes after the acetic acid injection. Peritoneal exudate was collected by washing out the peritoneal cavity with physiological saline and centrifuged at 3,000 r.p.m. After the centrifugation, spectrophotometry of the supernatant was measured at 630 nm. Results were expressed as dye leakage and percent inhibition.

[2] = target: Bovine serum albumin (Bos taurus, UniProt P02769); assay: biochemical
Chain of Bovine serum albumin (P02769 25-607): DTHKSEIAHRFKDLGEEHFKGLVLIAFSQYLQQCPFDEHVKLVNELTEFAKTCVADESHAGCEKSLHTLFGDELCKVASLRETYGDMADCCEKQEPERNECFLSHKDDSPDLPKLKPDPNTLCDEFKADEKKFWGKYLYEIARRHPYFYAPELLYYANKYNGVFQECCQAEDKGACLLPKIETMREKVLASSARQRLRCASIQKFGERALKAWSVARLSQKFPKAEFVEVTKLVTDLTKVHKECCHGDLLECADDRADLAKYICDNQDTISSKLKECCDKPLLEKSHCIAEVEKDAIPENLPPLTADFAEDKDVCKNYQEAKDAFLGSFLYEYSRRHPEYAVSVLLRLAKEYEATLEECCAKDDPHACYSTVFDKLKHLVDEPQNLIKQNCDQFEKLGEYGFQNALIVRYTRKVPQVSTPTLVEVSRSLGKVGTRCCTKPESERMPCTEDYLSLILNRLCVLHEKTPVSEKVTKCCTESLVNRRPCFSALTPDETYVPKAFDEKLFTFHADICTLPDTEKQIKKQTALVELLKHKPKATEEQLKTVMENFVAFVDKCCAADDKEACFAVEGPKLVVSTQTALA
Protocol: Inhibitory action against thermal denaturation of protein
Bovine serum albumin was dissolved into 1/15M phosphoric acid buffer solution, which was then adjusted to 0.7%. After adding the solution of the present invention compound thereto, it was heated at 65° C. for 7-8 minutes. After cooled, the absorbance at 660 nm was measured, compared with the absorbance of the reference to derive the inhibitory rate and then the concentration necessary to inhibit 50% was obtained.

[3] = tested on: bone resorption; assay: Inhibitory action against bone resorption (45Ca release from embryo front arm bone, IL-1β); type: cell-based; conditions: Rattus norvegicus; 25 μg/ml, with interleukin-1β, 72 hours; read-out: Inhibitory rate against bone resorption (%)
Protocol: Inhibitory action against bone resorption
According to Raisz et al method (J. Clin. Invest., 155, 103 (1965)), bone piece of front arm of […] labelled with radioactive calcium (^45 Ca) was prepared in order to measure bone resorption. That is, the radioactive calcium (^45 CaCl2; 200 μCi) was injected under the skin to the back of rats in the 17th day of pregnancy and two days later they were killed with exsanguination by cutting of the carotid artery thereof. After the embryos were picked up and washed with sterilized phosphated buffer solution, the bone of front arm was taken out, which was then rendered free of the attached muscle and cartilage of the both ends, and said piece of bone was cultivated in the culture medium of BGJb.
Next, according to the method of Tsuda et al (J. Bone Miner. Metab., 1, 207 (1986)), the effect of the present invention compound against the bone resorption was determined, which are described as follows.
The piece of bone was put on a milipore-filter, and was pre-cultivated, in a well with 24 holes plate accomodating 0.6 ml culture medium of BGJb, at 37° C. and under 5% carbon dioxide. After the precultivation for 24 hours, said bone with the filter were transferred into a test culture medium added with interleukin-1β (1L-1β) or with both 1L-1β and drugs and the cultivation was continued. After 72 hours cultivation in said test culture medium, 0.3 ml of the supernatant was taken out and ^45 Ca released from the piece of bone was determined. After the piece of bone was immersed in 0.3 ml of 1N hydrochloric acid for more than 1.5 hours, 10 ml of ACSII was added thereto and the radioactivity was determined. Furthermore, the activity of bone resorption was represented by the ratio (percentage) of ^45 Ca released in the supernatant of cultivation to the total radioactivity which had been contained in the piece of bone (the sum of radioactivities in the piece of bone and the supernatant of cultivation). […]

| IC50 [2] [µM] | SMILES | Dye leakage (mean ± S.E) ([1]; 45 minutes before Evans blue, control 25.77 ± 1.81, *significantly different from control, p < 0.01) [µg/mL] | Inhibition (%) [1] [%] | inhibition at 25 µg/mL [3] [%] |
| --- | --- | --- | --- | --- |
| 132 | O=C(O)c1cc(Br)cc2c1NCCCC2 [Example 9, 7-Bromo2,3,4,5-tetrahydro-1H-1-benzazepine-9-carboxylic acid] | 17.43 ± 1.38 | 32.3 |  |
| 71 | O=C(O)c1cc([N+](=O)[O-])cc2c1NCCCC2 [Example 10, 7-Nitro-2,3,4,5-tetrahydro-1H-1-benzazepine-9-carboxylic acid] |  |  |  |
|  | N#Cc1cc2c(c(C(=O)O)c1)NCCCC2 [Example 11 c), 7-Cyano-2,3,4,5-tetrahydro-1H-1-benzazepine-9-carboxylic acid] |  |  | 54 |
|  | O=C(O)c1cc2c(c(C(=O)O)c1)NCCCC2 [Example 12, 2,3,4,5-Tetrahydro-1H-1-benzazepine-7,9-di-carboxylic acid] |  |  | 84 |
|  | CC(C)Oc1ccc2c(=O)c(-c3ccccc3)coc2c1 [Ipriflavone, 7-isopropoxy isoflavone, reference compound] |  |  | 58 |
